Source: patent US6004955A, “Cyclic carbamates and isoxazolidines as IIb/IIIa antagonists” (DuPont Pharmaceuticals Company, priority 1998, dated 1999)

How the values were obtained:
[1] = tested on: platelet aggregation (using platelet rich plasma (PRP)); assay: Platelet Aggregation Assay (without esterase); assay type: cell-based; details: human platelet rich plasma
Protocol: (§1) Platelet Aggregation Assay: Venous blood was obtained from the arm of a healthy human donor who was drug-free and aspirin-free for at least two weeks prior to blood collection. Blood was collected into 10 mL citrated Vacutainer tubes. The blood was centrifuged for 15 minutes at 150×g at room temperature, and platelet-rich plasma (PRP) was removed. The remaining blood was centrifuged for 15 minutes at 1500×g at room temperature, and platelet-poor plasma (PPP) was removed. Samples were assayed on a aggregometer (PAP-4 Platelet Aggregation Profiler), using PPP as the blank (100% transmittance). 200 μL of PRP was added to each micro test tube, and transmittance was set to 0%. 20 μL of various agonists (ADP, collagen, arachidonate, epinephrine, thrombin) were added to each tube, and the aggregation profiles were plotted (% transmittance versus time). The results are expressed as % inhibition of agonist-inducedplatelet aggregation. For the IC50 evaluation, the test compounds were added at various concentrations prior to the activation of the platelets.
(§2) Table A below sets forth the antiplatelet activity of representative compounds of the present invention. The indicated compounds were tested for their ability to inhibit platelet aggregation (using platelet rich plasma (PRP)). The IC50 value (the concentration of antagonist which inhibits platelet aggregation by 50% relative to a control lacking the antagonist) is shown. In Table 5 the IC50 values are expressed as: +++=IC50 of <10 μM (μM=micromolar).

[2] = tested on: platelet aggregation (using platelet rich plasma (PRP)); assay: Platelet Aggregation Assay (with esterase; ester prodrugs preincubated with porcine liver esterase); assay type: cell-based; details: human platelet rich plasma; preincubated with 100 IU/mL Porcine liver esterase 2 hours at 37° C.; 100 μM Adenosine Diphosphate
Protocol: as §1
Ester prodrugs were preincubated (10^-3 M F.C.) with 100 IU/mL Porcine liver esterase (Sigma Chemical Co., St. Louis, Mo., #E-3128) for 2 hours at 37° C. Aliquots are then diluted in 0.1 M Tris, pH 7.4, to the desired concentrations. Aliquots of 20 μl of the esterase pretreated prodrugs are added to 200 μl of human platelet rich plasma. Samples were placed in platelet profiler (aggregometer) for 8 minutes at 37° C., followed by the addition of 100 μM Adenosine Diphosphate, (Sigma Chemical Co., St. Louis, Mo., #A-6521), to induce platelet aggregation. Platelet aggregation was allowed to proceed for 5 minutes. Percent inhibition is calculated using percent aggregation in the presence of the test compound divided by percent aggregation of control, times 100. This value is subtracted from 100, yielding percent inhibition. Calculation of IC50 is performed on a Texas Instruments TI59 with an IC50 program.
as §2

Compound | IC50 [1] | IC50 [2]
Cc1cccc(S(=O)(=O)N[C@@H](CNC(=O)CC2CC(c3ccc(C(=N)N)cc3)N(C(C)C)O2)C(=O)O)c1 (stereo partly drawn) [Example 29, Cis-3-[2-[2-isopropyl-3-[4-(aminoiminomethyl)phenyl]-isoxazolidin-5-yl]acetyl]amino-N-(3-methylphenylsulfonyl)-L-alanine monohydrogenchloride] | < 10 µM | –
Cc1noc(C)c1S(=O)(=O)N[C@@H](CNC(=O)C[C@@H]1C[C@H](c2ccc(C(=N)N)cc2)N(C)O1)C(=O)O (relative stereo) [Example 38, Cis-3-[2-[2-methyl-3-[4-(aminoiminomethyl)phenyl]-isoxazolidin-5-yl]acetyl]amino-N-(3,5-dimethyloxazol-4-ylsulfonyl)-L-alanine monohydrogenchloride] | < 10 µM | –
COC(=O)[C@H](CNC(=O)CC1CC(c2ccc(C(=N)N)cc2)N(C)C(=O)O1)NS(=O)(=O)c1c(C)noc1C (stereo partly drawn) [Example 335, Cis-3-[[[4-[4-(aminoiminomethyl)phenyl]tetrahydro-3-methyl-2-oxo-2H-1,3-oxazin-6-yl]acetyl]amino]-N-[(3,5dimethylisoxazol-4-yl)sulfonyl]-L-alanine methyl ester monotrifluoroacetic acid] | – | < 10 µM
COC(=O)[C@H](CNC(=O)CC1CC(c2ccc(C(=N)N)cc2)N(C)O1)NS(=O)(=O)c1cccc(C)c1 (stereo partly drawn) [Example 3, Trans-3-[2-[2-methyl-3-[4-(aminoiminomethyl)phenyl]-isoxazolidin-5-yl]acetyl]amino-N-(3-methylphenylsulfonyl)-L-alanine methyl ester monotrifluoroacetic acid] | – | < 10 µM
CCCCOC(=O)N[C@@H](CNC(=O)CC1CC(c2ccc(C(=N)N)cc2)N(C)C(=O)O1)C(=O)OC (stereo partly drawn) [Example 355, Cis-3-[[[4-[4-(aminoiminomethyl)phenyl]tetrahydro-3-methyl-2-oxo-2H-1,3-oxazin-6-yl]acetyl]amino]-N-(n-butyloxycarbonyl)-L-alanine methyl ester monotrifluoroacetic acid] | – | < 10 µM
COC(=O)[C@H](CNC(=O)CC1CC(c2ccc(C(=N)N)cc2)N(C(C)C)O1)NS(=O)(=O)c1cccc(C)c1 (stereo partly drawn) [Example 28, Cis-3-[2-[2-isopropyl-3-[4-(aminoiminomethyl)phenyl]-isoxazolidin-5-yl]acetyl]amino-N-(3-methylphenylsulfonyl)-L-alanine methyl ester monotrifluoroacetic acid] | – | < 10 µM
CCCCOC(=O)N[C@@H](CNC(=O)CC1CC(c2ccc(C(=N)N)cc2)N(C)C(=O)O1)C(=O)O (stereo partly drawn) [Example 356, Cis-3-[[[4-[4-(aminoiminomethyl)phenyl]tetrahydro-3-methyl-2-oxo-2H-1,3-oxazin-6-yl]acetyl]amino]-N-(n-butyloxycarbonyl)-L-alanine monohydrogenchloride] | < 10 µM | –
Cc1noc(C)c1S(=O)(=O)N[C@@H](CNC(=O)CC1CC(c2ccc(C(=N)N)cc2)N(C)C(=O)O1)C(=O)O (stereo partly drawn) [Example 336, Cis-3-[[[4-[4-(aminoiminomethyl)phenyl]tetrahydro-3-methyl-2-oxo-2H-1,3-oxazin-6-yl]acetyl]amino]-N-[(3,5-dimethylisoxazol-4-yl)sulfonyl]-L-alanine monohydrogenchloride] | < 10 µM | –
COC(=O)[C@H](CNC(=O)CC1CC(c2ccc(C(=N)N)cc2)N(Cc2ccccc2)C(=O)O1)NS(=O)(=O)c1cccc(C)c1 (stereo partly drawn) [Example 321, Cis-3-[[[4-[4-(aminoiminomethyl)phenyl]tetrahydro-3-benzyl-2-oxo-2H-1,3-oxazin-6-yl]acetyl]amino]-N-[(3-methylphenyl)sulfonyl]-L-alanine methyl ester monotrifluoroacetic acid] | – | < 10 µM
COC(=O)[C@H](CNC(=O)CC1CC(c2ccc(C(=N)N)cc2)N(C)O1)NS(=O)(=O)c1cccc(C)c1 (stereo partly drawn) [Example 1, Cis-3-[2-[2-methyl-3-[4-(aminoiminomethyl)phenyl]-isoxazolidin-5-yl]-acetyl]amino-N-(3-methylphenylsulfonyl)-L-alanine Methyl Ester Monotrifluoroacetic Acid] | – | < 10 µM
Cc1ccccc1S(=O)(=O)N[C@@H](CNC(=O)CC1CC(c2ccc(C(=N)N)cc2)N(C)C(=O)O1)C(=O)O (stereo partly drawn) [Example 328, Cis-3-[[[4-[4-(aminoiminomethyl)phenyl]tetrahydro-3-methyl-2-oxo-2H-1,3-oxazin-6-yl]acetyl]amino]-N-[(2-methylphenyl)sulfonyl]-L-alanine monohydrogenchloride] | < 10 µM | –
Cc1cccc(S(=O)(=O)N[C@@H](CNC(=O)CC2CC(c3ccc(C(=N)N)cc3)N(c3ccccc3)O2)C(=O)O)c1 (stereo partly drawn) [Example 71, Cis-3-[2-[2-phenyl-[4-(aminoiminomethyl)phenyl]-isoxazolidin-5-yl]actetyl]amino-N-(3-methylphenylsulfonyl)-L-alanine monohydrogenchloride] | < 10 µM | –
COC(=O)[C@H](CNC(=O)CC1CC(c2ccc(C(=N)N)cc2)N(C)C(=O)O1)NS(=O)(=O)c1ccccc1C (stereo partly drawn) [Example 327, Cis-3-[[[4-[4-(aminoiminomethyl)phenyl]tetrahydro-3-methyl-2-oxo-2H-1,3-oxazin-6-yl]acetyl]amino]-N-[(2-methylphenyl)sulfonyl]-L-alanine methyl ester monotrifluoroacetic acid] | – | < 10 µM
COC(=O)[C@H](CNC(=O)C[C@@H]1C[C@H](c2ccc(C(=N)N)cc2)N(C)O1)NS(=O)(=O)c1c(C)noc1C (relative stereo) [Example 37, Cis-3-[2-[2-methyl-3-[4-(aminoiminomethyl)phenyl]-isoxazolidin-5-yl]acetyl]amino-N-(3,5-dimethyloxazol-4-ylsulfonyl)-L-alanine methyl ester monotrifluoroacetic] | – | < 10 µM
Cc1cccc(S(=O)(=O)N[C@@H](CNC(=O)CC2CC(c3ccc(C(=N)N)cc3)N(Cc3ccccc3)O2)C(=O)O)c1 (stereo partly drawn) [Example 17, Cis-3-[2-[2-benzyl-3-[4-(aminoiminomethyl)phenyl]-isoxazolidin-5-yl]acetyl]amino-N-(3-methylphenylsulfonyl)-L-alanine monohydrogenchloride] | < 10 µM | –
Cc1ccccc1S(=O)(=O)N[C@@H](CNC(=O)CC1CC(c2ccc(C(=N)N)cc2)N(C)O1)C(=O)O (stereo partly drawn) [Example 33, Cis-3-[2-[2-methyl-3-[4-(aminoiminomethyl)phenyl]-isoxazolidin-5-yl]acetyl]amino-N-(2-methylphenylsulfonyl)-L-alanine monohydrogenchloride] | < 10 µM | –
COC(=O)[C@H](CNC(=O)CC1CC(c2ccc(C(=N)N)cc2)N(c2ccccc2)O1)NS(=O)(=O)c1cccc(C)c1 (stereo partly drawn) [Example 70, Cis-3-[2-[2-phenyl-3-[4-(aminoiminomethyl)phenyl]-isoxazolidin-5-yl]acetyl]amino-N-(3-methylphenylsulfonyl)-L-alanine methyl ester monotrifluoroacetic acid] | – | < 10 µM
CCCCOC(=O)N[C@@H](CNC(=O)CC1CC(c2ccc(C(=N)N)cc2)N(C)O1)C(=O)OC (stereo partly drawn) [Example 68, Cis-3-[2-[2-methyl-3-[4-(aminoiminomethyl)phenyl]-isoxazolidin-5-yl]acetyl]amino-N-n-butyloxycarbonyl-L-alanine methyl ester monotrifluoroacetic acid] | – | < 10 µM
COC(=O)[C@H](CNC(=O)C[C@@H]1CC(c2ccc(C(=N)N)cc2)N(Cc2ccccc2)O1)NS(=O)(=O)c1cccc(C)c1 (relative stereo) [Example 16, Cis-3-[2-[2-benzyl-3-[4-(aminoiminomethyl)phenyl]-isoxazolidin-5-yl]acetyl]-N-(3-methylphenylsulfonyl)-L-alanine methyl ester monotrifluoroacetic acid] | – | < 10 µM
COC(=O)[C@H](CNC(=O)CC1CC(c2ccc(C(=N)N)cc2)N(C)C(=O)O1)NS(=O)(=O)c1cccc(C)c1 (stereo partly drawn) [Example 300, Cis-3-[[[4-[4-(aminoiminomethyl)phenyl]tetrahydro-3-methyl-2-oxo-2H-1,3-oxazin-6-yl]acetyl]amino]-N-[(3-methylphenyl)sulfonyl]-L-alanine methyl ester monotrifluoroacetic acid] | – | < 10 µM
COC(=O)[C@H](CNC(=O)CC1CC(c2ccc(C(=N)N)cc2)N(C)O1)NS(=O)(=O)c1ccccc1C (stereo partly drawn) [Example 32, Cis-3-[2-[2-methyl-3-[4-(aminoiminomethyl)phenyl]-isoxazolidin-5-yl]acetyl]amino-N-(2-methylphenylsulfonyl)-L-alanine methyl ester monotrifluoroacetic acid] | – | < 10 µM
